Measured values published in US7994209B2, “3-phenoxymethylpyrrolidine compounds” (Theravance, Inc., priority 2009, dated 2011).

Key:
hSERT = hSERT (Homo sapiens, UniProt P31645); assay: fluorescence-based serotonin reuptake inhibition assay (Tsuruda et al. 2010; data indicated by an asterisk); type: cell-based; set-up: expressed in transfected cells; host or cells: HEK-293; conditions: fluorescence-based assay (values with asterisk), read-out: SERT pIC50 (converted)
hNET = hNET (Homo sapiens, UniProt P23975); assay: fluorescence-based norepinephrine reuptake inhibition assay (Tsuruda et al. 2010; data indicated by an asterisk); type: cell-based; set-up: expressed in transfected cells; host or cells: HEK-293; conditions: norepinephrine reuptake inhibition, fluorescence-based assay (values with asterisk); read-out: NET pIC50 (converted)
hNET, sequence (P23975 whole entry): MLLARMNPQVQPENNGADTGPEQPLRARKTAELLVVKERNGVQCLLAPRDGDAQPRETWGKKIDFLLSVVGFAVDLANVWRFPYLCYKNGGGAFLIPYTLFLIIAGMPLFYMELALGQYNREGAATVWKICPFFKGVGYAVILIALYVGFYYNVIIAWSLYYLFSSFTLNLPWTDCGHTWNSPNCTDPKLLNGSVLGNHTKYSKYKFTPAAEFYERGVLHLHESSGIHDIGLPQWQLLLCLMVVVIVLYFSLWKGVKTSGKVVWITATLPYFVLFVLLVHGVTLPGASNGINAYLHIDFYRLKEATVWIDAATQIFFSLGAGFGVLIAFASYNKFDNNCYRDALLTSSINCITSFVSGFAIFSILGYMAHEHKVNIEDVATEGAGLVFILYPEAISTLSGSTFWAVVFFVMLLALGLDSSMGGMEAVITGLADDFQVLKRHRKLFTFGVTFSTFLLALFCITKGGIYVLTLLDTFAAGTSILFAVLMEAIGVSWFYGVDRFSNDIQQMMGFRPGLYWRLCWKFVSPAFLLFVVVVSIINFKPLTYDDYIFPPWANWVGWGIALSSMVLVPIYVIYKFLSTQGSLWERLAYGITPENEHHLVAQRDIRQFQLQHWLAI

hSERT, sequence (P31645 whole entry): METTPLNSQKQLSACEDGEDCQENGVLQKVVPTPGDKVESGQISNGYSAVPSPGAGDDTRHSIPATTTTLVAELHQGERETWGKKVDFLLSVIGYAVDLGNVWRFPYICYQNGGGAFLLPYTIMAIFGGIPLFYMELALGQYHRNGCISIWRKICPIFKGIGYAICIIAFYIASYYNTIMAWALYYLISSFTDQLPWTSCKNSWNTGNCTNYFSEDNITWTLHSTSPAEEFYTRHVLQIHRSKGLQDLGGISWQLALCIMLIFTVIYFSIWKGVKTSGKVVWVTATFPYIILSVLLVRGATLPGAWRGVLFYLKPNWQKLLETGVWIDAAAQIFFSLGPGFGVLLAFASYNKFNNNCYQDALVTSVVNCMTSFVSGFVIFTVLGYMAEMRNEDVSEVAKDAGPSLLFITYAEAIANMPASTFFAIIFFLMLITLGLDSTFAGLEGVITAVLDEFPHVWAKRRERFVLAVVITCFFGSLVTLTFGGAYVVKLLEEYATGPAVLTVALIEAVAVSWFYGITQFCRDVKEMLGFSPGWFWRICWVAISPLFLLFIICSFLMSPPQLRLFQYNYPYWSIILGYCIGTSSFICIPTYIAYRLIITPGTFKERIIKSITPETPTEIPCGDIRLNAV

Row | Structure (SMILES) | IC50 (hSERT) | IC50 (hNET)
1 | CCC[C@H](Oc1cccc(Cl)c1F)[C@H]1CCNC1 [Example 4-48, (S)-3-[(S)-1-(3-Chloro-2-fluorophenoxy)butyl]pyrrolidine] | ≤ 100 nM | ≤ 10 nM
2 | CCC[C@@H](Oc1ccc(F)c(F)c1F)[C@H]1CCNC1 [Example 4-49, (S)-3-[(R)-1-(2,3,4-Trifluorophenoxy)butyl]pyrrolidine] | ≤ 10 nM | ≤ 100 nM
3 | CCC[C@@H](Oc1ccc(Cl)c(Cl)c1F)[C@H]1CCNC1 [Example 4-51, (S)-3-[(R)-1-(3,4-Dichloro-2-fluorophenoxy)butyl]pyrrolidine] | ≤ 10 nM | ≤ 10 nM
4 | CCC[C@H](Oc1ccc(Cl)c(Cl)c1F)[C@H]1CCNC1 [Example 4-52, (S)-3-[(S)-1-(3,4-Dichloro-2-fluorophenoxy)butyl]pyrrolidine] | ≤ 10 nM | ≤ 10 nM
5 | CCC[C@H](Oc1c(F)cc(Cl)cc1F)[C@H]1CCNC1 [Example 4-53, (S)-3-[(S)-1-(4-Chloro-2,6-difluorophenoxy)butyl]pyrrolidine] | ≤ 10 nM | ≤ 10 nM
6 | CCC[C@@H](Oc1ccc(Cl)cc1C)[C@@H]1CCNC1 [Example 4-61, (R)-3-[(R)-1-(4-Chloro-2-methylphenoxy)butyl]pyrrolidine] | ≤ 100 nM | ≤ 100 nM
7 | CCC[C@H](Oc1cccc(C)c1C)[C@H]1CCNC1 [Example 4-62, (S)-3-[(S)-1-(2,3-Dimethylphenoxy)butyl]pyrrolidine] | ≤ 10 nM | ≤ 10 nM
8 | CCC[C@H](Oc1ccc(Cl)cc1OC)[C@H]1CCNC1 [Example 4-72, (S)-3-[(S)-1-(4-Chloro-2-methoxyphenoxy)butyl]pyrrolidine] | ≤ 10 nM | ≤ 10 nM
9 | CC(C)[C@H](Oc1cccc(Cl)c1F)[C@H]1CCNC1 [Example 6-3, (S)-3-[(S)-1-(3-Chloro-2-fluorophenoxy)-2-methylpropyl]pyrrolidine] | ≤ 100 nM | ≤ 10 nM
10 | CC(C)[C@@H](Oc1cccc(Cl)c1F)[C@H]1CCNC1 [Example 6-4, (S)-3-[(R)-1-(3-Chloro-2-fluorophenoxy)-2-methylpropyl]pyrrolidine] | ≤ 10 nM | ≤ 10 nM
11 | CC(C)[C@H](Oc1c(F)cc(Cl)cc1F)[C@H]1CCNC1 [Example 6-5, (S)-3-[(S)-1-(4-Chloro-2,6-difluorophenoxy)-2-methylpropyl]pyrrolidine] | ≤ 10 nM | ≤ 10 nM
12 | CC(C)[C@@H](Oc1c(F)cc(Cl)cc1F)[C@@H]1CCNC1 [Example 6-6, (R)-3-[(R)-1-(4-Chloro-2,6-difluorophenoxy)-2-methylpropyl]pyrrolidine] | ≤ 100 nM | ≤ 100 nM
13 | CC(C)[C@@H](Oc1ccc(Cl)c(Cl)c1F)[C@H]1CCNC1 [Example 6-8, (S)-3-[(R)-1-(3,4-Dichloro-2-fluorophenoxy)-2-methylpropyl]pyrrolidine] | ≤ 10 nM | ≤ 100 nM
14 | CC(C)[C@@H](Oc1ccc(Cl)c(Cl)c1F)[C@@H]1CCNC1 [Example 6-9, (R)-3-[(R)-1-(3,4-Dichloro-2-fluorophenoxy)-2-methylpropyl]pyrrolidine] | ≤ 10 nM | ≤ 100 nM
15 | CC(C)[C@H](Oc1cccc(Cl)c1Cl)[C@@H]1CCNC1 [Example 6-16, (R)-3-[(S)-1-(2,3-Dichlorophenoxy)-2-methylpropyl]pyrrolidine] | ≤ 100 nM | ≤ 100 nM
16 | CC(C)[C@H](Oc1cccc(F)c1Cl)[C@@H]1CCNC1 [Example 6-20, (R)-3-[(S)-1-(2-Chloro-3-fluorophenoxy)-2-methylpropyl]pyrrolidine] | ≤ 100 nM | ≤ 100 nM
17 | CC(C)[C@@H](Oc1ccc(Cl)cc1Cl)[C@@H]1CCNC1 [Example 6-23, (R)-3-[(R)-1-(2,4-Dichlorophenoxy)-2-methylpropyl]pyrrolidine] | ≤ 10 nM | ≤ 100 nM
18 | CC(C)[C@H](Oc1ccc(C(F)(F)F)cc1Cl)[C@H]1CCNC1 [Example 6-25, (S)-3-[(S)-1-(2-Chloro-4-trifluoromethylphenoxy)-2-methylpropyl]pyrrolidine] | ≤ 10 nM | ≤ 100 nM
19 | CC(C)[C@@H](Oc1cc(Cl)ccc1Cl)[C@H]1CCNC1 [Example 6-26, (S)-3-[(R)-1-(2,5-Dichlorophenoxy)-2-methylpropyl]pyrrolidine] | ≤ 100 nM | ≤ 100 nM
20 | CC(C)[C@@H](Oc1c(F)cc(Cl)cc1Cl)[C@H]1CCNC1 [Example 6-31, (S)-3-[(R)-1-(2,4-Dichloro-6-fluorophenoxy)-2-methylpropyl]pyrrolidine] | ≤ 10 nM | ≤ 100 nM
21 | CC(C)[C@H](Oc1c(F)cc(Cl)cc1Cl)[C@@H]1CCNC1 [Example 6-32, (R)-3-[(S)-1-(2,4-Dichloro-6-fluorophenoxy)-2-methylpropyl]pyrrolidine] | ≤ 100 nM | ≤ 316 nM

Further lines, results first:

Row | IC50 (hSERT) | IC50 (hNET) | Structure (SMILES)
22 | ≤ 10 nM | ≤ 10 nM | Cc1cc(Cl)cc(Cl)c1O[C@@H](C(C)C)[C@H]1CCNC1 [Example 6-33, (S)-3-[(S)-1-(2,4-Dichloro-6-methylphenoxy)-2-methylpropyl]pyrrolidine]
23 | ≤ 10 nM | ≤ 10 nM | COc1ccc(F)c(O[C@H](C(C)C)[C@@H]2CCNC2)c1Cl [Example 6-37, (R)-3-[(R)-1-(2-Chloro-6-fluoro-3-methoxyphenoxy)-2-methylpropyl]pyrrolidine]
24 | ≤ 10 nM | ≤ 100 nM | Cc1c(Cl)cccc1O[C@H](C(C)C)[C@@H]1CCNC1 [Example 6-41, (R)-3-[(R)-1-(3-Chloro-2-methylphenoxy)-2-methylpropyl]pyrrolidine]
25 | ≤ 10 nM | ≤ 100 nM | Cc1c(Cl)cccc1O[C@@H](C(C)C)[C@@H]1CCNC1 [Example 6-42, (R)-3-[(S)-1-(3-Chloro-2-methylphenoxy)-2-methylpropyl]pyrrolidine]
26 | ≤ 100 nM | ≤ 100 nM | Cc1cc(Cl)ccc1O[C@H](C(C)C)[C@@H]1CCNC1 [Example 6-46, (R)-3-[(R)-1-(4-Chloro-2-methylphenoxy)-2-methylpropyl]pyrrolidine]
27 | ≤ 10 nM | ≤ 100 nM | COc1cc(Cl)ccc1O[C@H](C(C)C)[C@@H]1CCNC1 [Example 6-48, (R)-3-[(R)-1-(4-Chloro-2-methoxyphenoxy)-2-methylpropyl]pyrrolidine]
28 | ≤ 10 nM | ≤ 100 nM | CC(C)[C@@H](Oc1ccc(Cl)c(F)c1)[C@H]1CCNC1 [Example 6-57, (S)-3-[(R)-1-(4-Chloro-3-fluorophenoxy)-2-methylpropyl]pyrrolidine]
29 | ≤ 10 nM | ≤ 100 nM | CC(C)[C@@H](Oc1ccc(Cl)c(F)c1)[C@@H]1CCNC1 [Example 6-58, (R)-3-[(R)-1-(4-Chloro-3-fluorophenoxy)-2-methylpropyl]pyrrolidine]
30 | ≤ 100 nM | ≤ 10 nM | CC(C)[C@H](Oc1cc(F)cc(Cl)c1)[C@H]1CCNC1 [Example 6-59, (S)-3-[(S)-1-(3-Chloro-5-fluorophenoxy)-2-methylpropyl]pyrrolidine]
31 | ≤ 10 nM | ≤ 10 nM | CC(C)[C@@H](Oc1cc(F)cc(Cl)c1)[C@H]1CCNC1 [Example 6-60, (S)-3-[(R)-1-(3-Chloro-5-fluorophenoxy)-2-methylpropyl]pyrrolidine]
32 | ≤ 100 nM | ≤ 100 nM | CC(C)[C@@H](Oc1cc(F)cc(Cl)c1)[C@@H]1CCNC1 [Example 6-61, (R)-3-[(R)-1-(3-Chloro-5-fluorophenoxy)-2-methylpropyl]pyrrolidine]
33 | ≤ 10 nM | ≤ 100 nM | CC(C)[C@@H](Oc1ccc(Cl)c(Cl)c1)[C@H]1CCNC1 [Example 6-63, (S)-3-[(R)-1-(3,4-Dichlorophenoxy)-2-methylpropyl]pyrrolidine]
34 | ≤ 10 nM | ≤ 100 nM | CC(C)[C@@H](Oc1ccc(Cl)c(Cl)c1)[C@@H]1CCNC1 [Example 6-64, (R)-3-[(R)-1-(3,4-Dichlorophenoxy)-2-methylpropyl]pyrrolidine]
35 | ≤ 10 nM | ≤ 100 nM | CC(C)[C@H](Oc1ccc(Cl)c(Cl)c1)[C@@H]1CCNC1 [Example 6-65, (R)-3-[(S)-1-(3,4-Dichlorophenoxy)-2-methylpropyl]pyrrolidine]
36 | ≤ 100 nM | ≤ 100 nM | CC(C)[C@H](Oc1cc(Cl)cc(Cl)c1)[C@@H]1CCNC1 [Example 6-69, (R)-3-[(S)-1-(3,5-Dichlorophenoxy)-2-methylpropyl]pyrrolidine]
37 | ≤ 10 nM | ≤ 100 nM | Cc1cc(O[C@H](C(C)C)[C@H]2CCNC2)ccc1Cl [Example 6-71, (S)-3-[(R)-1-(4-Chloro-3-methylphenoxy)-2-methylpropyl]pyrrolidine]
38 | ≤ 10 nM | ≤ 10 nM | CC(C)C[C@H](Oc1cccc(C(F)(F)F)c1F)[C@H]1CCNC1 [Example 10-21, (S)-3-[(S)-1-(2-Fluoro-3-trifluoromethylphenoxy)-3-methylbutyl]pyrrolidine]
39 | ≤ 10 nM | ≤ 100 nM | CC(C)C[C@@H](Oc1cccc(Cl)c1C(F)(F)F)[C@H]1CCNC1 [Example 10-34, (S)-3-[(R)-1-(3-Chloro-2-trifluoromethylphenoxy)-3-methylbutyl]pyrrolidine]
40 | ≤ 100 nM | ≤ 10 nM | CC(C)C[C@@H](Oc1ccc(Cl)cc1F)[C@H]1CCNC1 [Example 10-40, (S)-3-[(R)-1-(4-Chloro-2-fluorophenoxy)-3-methylbutyl]pyrrolidine]
41 | ≤ 10 nM | ≤ 10 nM | CC(C)C[C@H](Oc1cc(Cl)ccc1Cl)[C@H]1CCNC1 [Example 10-51, (S)-3-[(S)-1-(2,5-Dichlorophenoxy)-3-methylbutyl]pyrrolidine]
42 | ≤ 10 nM | ≤ 10 nM | CC(C)C[C@H](Oc1c(F)ccc(Cl)c1F)[C@H]1CCNC1 [Example 10-60, (S)-3-[(S)-1-(3-Chloro-2,6-difluorophenoxy)-3-methylbutyl]pyrrolidine]
